We go through 1 compound from publication PMC5218480 (PLoS ONE, 2017).

This experiment has as its system MV-4-11 cells. Put plainly: Gene expression microarray analysis (Affymetrix PrimeView) and GSEA. On the set-up: RFU PODN (11730768_x_at) / Fold change /veh PODN (11730768_x_at) / RFU LINC00158 (11744669_a_at) / Fold change /veh LINC00158 (11744669_a_at) / RFU DUSP10 (11751237_a_at) / Fold change /veh DUSP10 (11751237_a_at) / RFU ID3 (11757404_x_at) / Fold change /veh ID3 (11757404_x_at) / RFU PLEKHG5 (11737974_s_at) / Fold change /veh PLEKHG5 (11737974_s_at) / RFU LRRC4B (11730491_at) / Fold change /veh LRRC4B (11730491_at) / RFU GIMAP4 (11747438_a_at) / Fold change /veh GIMAP4 (11747438_a_at) / RFU KRT8 (11758183_x_at) / Fold change /veh KRT8 (11758183_x_at) / RFU CNN1 (11734310_a_at) / Fold change /veh CNN1 (11734310_a_at) / RFU VPS37D (11726825_at) / Fold change /veh VPS37D (11726825_at) / RFU C10orf10 (11716522_x_at) / Fold change /veh C10orf10 (11716522_x_at) / RFU KIR2DL2 /// KIR2DL4 /// KIR2DL5A /// KIR2DL5B /// KIR2DS1 /// KIR2DS2 /// KIR2DS3 /// KIR2DS4 /// KIR3DL3 /// KIR3DL3 /// KIR3DS1 (11738374_at) / Fold change /veh KIR2DL2 /// KIR2DL4 /// KIR2DL5A /// KIR2DL5B /// KIR2DS1 /// KIR2DS2 /// KIR2DS3 /// KIR2DS4 /// KIR3DL3 /// KIR3DL3 /// KIR3DS1 (11738374_at) / RFU C1QL1 (11718748_at) / Fold change /veh C1QL1 (11718748_at) / RFU TMPRSS4 (11747572_a_at) / Fold change /veh TMPRSS4 (11747572_a_at) / RFU HAMP (11756126_x_at) / Fold change /veh HAMP (11756126_x_at) / RFU RNFT2 (11725882_a_at) / Fold change /veh RNFT2 (11725882_a_at) / RFU NR4A2 (11747474_a_at) / Fold change /veh NR4A2 (11747474_a_at) / RFU ABCC12 (11746883_a_at) / Fold change /veh ABCC12 (11746883_a_at) / RFU TMEM136 (11760407_x_at) / Fold change /veh TMEM136 (11760407_x_at) / RFU CLDN22 /// WWC2 (11732394_at) / Fold change /veh CLDN22 /// WWC2 (11732394_at) / RFU HLA-DPB1 (11760878_x_at) / Fold change /veh HLA-DPB1 (11760878_x_at) / RFU SPINT1 (11716480_a_at) / Fold change /veh SPINT1 (11716480_a_at) / RFU GAP43 (11754022_s_at) / Fold change /veh GAP43 (11754022_s_at) / RFU A4GNT (11735810_at) / Fold change /veh A4GNT (11735810_at) / RFU PRB3 (11715151_x_at) / Fold change /veh PRB3 (11715151_x_at) / RFU TUBB4B (11761932_at) / Fold change /veh TUBB4B (11761932_at) / RFU CAPN14 (11732068_a_at) / Fold change /veh CAPN14 (11732068_a_at) / RFU TMCC2 (11721928_a_at) / Fold change /veh TMCC2 (11721928_a_at) / RFU IRGQ (11745062_a_at) / Fold change /veh IRGQ (11745062_a_at) / RFU FAM174B (11720279_a_at) / Fold change /veh FAM174B (11720279_a_at) / RFU TMPRSS4 (11748680_a_at) / Fold change /veh TMPRSS4 (11748680_a_at) / RFU FAM212B (11763350_a_at) / Fold change /veh FAM212B (11763350_a_at) / RFU PLEKHG5 (11743358_a_at) / Fold change /veh PLEKHG5 (11743358_a_at) / RFU ZSCAN30 (11745921_a_at) / Fold change /veh ZSCAN30 (11745921_a_at) / RFU CMKLR1 (11741424_a_at) / Fold change /veh CMKLR1 (11741424_a_at) / RFU LOC101060620 /// MAPK8IP1 (11723275_at) / Fold change /veh LOC101060620 /// MAPK8IP1 (11723275_at) / RFU SPTSSB (11747773_x_at) / Fold change /veh SPTSSB (11747773_x_at) / RFU PRSS12 (11739890_at) / Fold change /veh PRSS12 (11739890_at) / RFU BIN1 (11741810_x_at) / Fold change /veh BIN1 (11741810_x_at) / RFU WNT11 (11732464_a_at) / Fold change /veh WNT11 (11732464_a_at) / RFU C10orf10 (11716521_a_at) / Fold change /veh C10orf10 (11716521_a_at) / RFU C5orf56 (11738089_at) / Fold change /veh C5orf56 (11738089_at) / RFU CYB561 (11721691_x_at) / Fold change /veh CYB561 (11721691_x_at) / RFU ANKRD19P (11752326_a_at) / Fold change /veh ANKRD19P (11752326_a_at) / RFU OR2T12 /// OR2T33 /// OR2T8 (11738714_s_at) / Fold change /veh OR2T12 /// OR2T33 /// OR2T8 (11738714_s_at) / RFU VCAN (11748164_a_at) / Fold change /veh VCAN (11748164_a_at) / RFU JSRP1 (11732532_at) / Fold change /veh JSRP1 (11732532_at) / RFU KRTAP10-11 (11738290_x_at) / Fold change /veh KRTAP10-11 (11738290_x_at) / RFU MYO3A (11730013_a_at) / Fold change /veh MYO3A (11730013_a_at) / RFU EBF3 (11725865_a_at) / Fold change /veh EBF3 (11725865_a_at) / RFU CAMK2N1 (11719241_x_at) / Fold change /veh CAMK2N1 (11719241_x_at) / RFU C5orf56 (11738088_a_at) / Fold change /veh C5orf56 (11738088_a_at) / RFU OLFML3 (11715873_a_at) / Fold change /veh OLFML3 (11715873_a_at) / RFU LOC100653217 /// NTM (11731650_a_at) / Fold change /veh LOC100653217 /// NTM (11731650_a_at) / RFU MAPK11 (11762145_a_at) / Fold change /veh MAPK11 (11762145_a_at) / RFU FIZ1 (11724087_x_at) / Fold change /veh FIZ1 (11724087_x_at) / RFU OASL (11726364_x_at) / Fold change /veh OASL (11726364_x_at) / RFU SOX15 (11748057_x_at) / Fold change /veh SOX15 (11748057_x_at) / RFU CD79A (11719716_a_at) / Fold change /veh CD79A (11719716_a_at) / RFU HIST1H1D (11736915_at) / Fold change /veh HIST1H1D (11736915_at) / RFU CASKIN2 (11723855_a_at) / Fold change /veh CASKIN2 (11723855_a_at) / RFU LOC730098 (11760151_x_at) / Fold change /veh LOC730098 (11760151_x_at) / RFU OR4N2 (11742367_at) / Fold change /veh OR4N2 (11742367_at) / RFU PRRT2 (11749266_a_at) / Fold change /veh PRRT2 (11749266_a_at) / RFU SNX32 (11753110_a_at) / Fold change /veh SNX32 (11753110_a_at) / RFU CDHR5 (11726645_a_at) / Fold change /veh CDHR5 (11726645_a_at) / RFU RCAN1 (11760418_a_at) / Fold change /veh RCAN1 (11760418_a_at) / RFU FAM167A (11723789_a_at) / Fold change /veh FAM167A (11723789_a_at) / RFU FAM26E (11764081_at) / Fold change /veh FAM26E (11764081_at) / RFU ISYNA1 (11749810_s_at) / Fold change /veh ISYNA1 (11749810_s_at) / RFU ACY1 (11761880_at) / Fold change /veh ACY1 (11761880_at) / RFU 11764098_at / Fold change /veh 11764098_at / RFU SAMD14 (11745864_x_at) / Fold change /veh SAMD14 (11745864_x_at) / RFU NPB (11741838_a_at) / Fold change /veh NPB (11741838_a_at) / RFU TMPRSS6 (11731388_a_at) / Fold change /veh TMPRSS6 (11731388_a_at) / RFU KRTAP10-2 (11738614_at) / Fold change /veh KRTAP10-2 (11738614_at) / RFU ARHGAP8 /// PRR5-ARHGAP8 (11727945_x_at) / Fold change /veh ARHGAP8 /// PRR5-ARHGAP8 (11727945_x_at) / RFU KRTAP5-7 /// NADSYN1 (11734609_at) / Fold change /veh KRTAP5-7 /// NADSYN1 (11734609_at) / RFU RASL12 (11751679_a_at) / Fold change /veh RASL12 (11751679_a_at) / RFU CDKN2B (11736163_a_at) / Fold change /veh CDKN2B (11736163_a_at) / RFU PRF1 (11729649_at) / Fold change /veh PRF1 (11729649_at) / RFU, ZNF638 /// ZNF638-IT1 / Fold change vs veh, ZNF638 /// ZNF638-IT1 / RFU, PANK3 / Fold change vs veh, PANK3 / RFU, SH3YL1 / Fold change vs veh, SH3YL1 / RFU, ZEB2 / Fold change vs veh, ZEB2 / RFU, NRIP1 / Fold change vs veh, NRIP1 / RFU, PTTG1IP / Fold change vs veh, PTTG1IP / RFU, CAPN2 / Fold change vs veh, CAPN2 / RFU, MED14 / Fold change vs veh, MED14 / RFU, SNORA58 / Fold change vs veh, SNORA58 / RFU, C1orf63 / Fold change vs veh, C1orf63 / RFU, LRRFIP1 / Fold change vs veh, LRRFIP1 / RFU, NDUFAF7 / Fold change vs veh, NDUFAF7 / RFU, SLC12A2 / Fold change vs veh, SLC12A2 / RFU, IBTK / Fold change vs veh, IBTK / RFU, ESF1 / Fold change vs veh, ESF1 / Fold change vs veh, TMEM50B / RFU, TAOK1 / Fold change vs veh, TAOK1 / RFU, ACBD3 / Fold change vs veh, ACBD3 / RFU, TMA16 / Fold change vs veh, TMA16 / RFU, RWDD3 / Fold change vs veh, RWDD3 / RFU, BCAT1 / Fold change vs veh, BCAT1 / RFU, EDEM3 / Fold change vs veh, EDEM3 / RFU, TMEM33 / Fold change vs veh, TMEM33 / RFU, WDR75 / Fold change vs veh, WDR75 / RFU, AHCTF1 / Fold change vs veh, AHCTF1 / RFU, TFRC / Fold change vs veh, TFRC / RFU, ZDHHC17 / Fold change vs veh, ZDHHC17 / RFU, NOM1 / Fold change vs veh, NOM1 / RFU, ARL8B / Fold change vs veh, ARL8B / RFU, ZBTB11 / Fold change vs veh, ZBTB11 / RFU, TAMM41 / Fold change vs veh, TAMM41 / RFU, KIAA1704 /// LOC100996395 / Fold change vs veh, KIAA1704 /// LOC100996395 / RFU, ING1 / Fold change vs veh, ING1 / RFU, TRMT61B / Fold change vs veh, TRMT61B / RFU, FUBP3 / Fold change vs veh, FUBP3 / RFU, TP53 / Fold change vs veh, TP53 / RFU, TNKS2 / Fold change vs veh, TNKS2 / RFU, ZFP14 / Fold change vs veh, ZFP14 / RFU, ACTR2 / Fold change vs veh, ACTR2 / RFU, PPP3R1 / Fold change vs veh, PPP3R1 / RFU, PIK3R1 / Fold change vs veh, PIK3R1 / RFU, HNRNPA1 / Fold change vs veh, HNRNPA1 / RFU, RNF170 / Fold change vs veh, RNF170 / RFU, ZNF28 / Fold change vs veh, ZNF28 / RFU, RNGTT / Fold change vs veh, RNGTT / RFU, OGT / Fold change vs veh, OGT / RFU, BRD1 / Fold change vs veh, BRD1 / RFU, MARS / Fold change vs veh, MARS / RFU, ZNF655 / Fold change vs veh, ZNF655 / RFU, FAHD1 / Fold change vs veh, FAHD1 / RFU, BDP1 / Fold change vs veh, BDP1 / RFU, LRRCC1 / Fold change vs veh, LRRCC1 / RFU, ARID1A / Fold change vs veh, ARID1A / RFU, ZNF146 / Fold change vs veh, ZNF146 / RFU, ZNF330 / Fold change vs veh, ZNF330 / RFU, GPN3 / Fold change vs veh, GPN3 / RFU, C9orf123 / Fold change vs veh, C9orf123 / RFU, N4BP2L2 / Fold change vs veh, N4BP2L2 / RFU, ARFIP1 / Fold change vs veh, ARFIP1 / RFU, FAM179B / Fold change vs veh, FAM179B / RFU, BCL10 / Fold change vs veh, BCL10 / RFU, UHRF1BP1L / Fold change vs veh, UHRF1BP1L / RFU, BET1 / Fold change vs veh, BET1 / RFU, CNOT2 / Fold change vs veh, CNOT2 / RFU, ZNF268 / Fold change vs veh, ZNF268 / Fold change vs veh, ZNF507 / RFU, DGCR2 / Fold change vs veh, DGCR2 / RFU, WDSUB1 / Fold change vs veh, WDSUB1 / Fold change vs veh, HSP90B1 /// MIR3652 / RFU, ADSS / Fold change vs veh, ADSS / RFU, GK / Fold change vs veh, GK / RFU, ZNF148 / Fold change vs veh, ZNF148 / RFU, TAF9 / Fold change vs veh, TAF9 / RFU, SLC1A5 / Fold change vs veh, SLC1A5 / RFU, SLMO2 / Fold change vs veh, SLMO2 / RFU, ABCC4 / Fold change vs veh, ABCC4 / RFU, LOC101060439 /// RAP1B / Fold change vs veh, LOC101060439 /// RAP1B / RFU, RFX7 / Fold change vs veh, RFX7 / RFU, GTPBP10 / Fold change vs veh, GTPBP10 / RFU, CNEP1R1 / Fold change vs veh, CNEP1R1 / RFU, BIVM-ERCC5 /// ERCC5 / Fold change vs veh, BIVM-ERCC5 /// ERCC5 / RFU, ILF3 / Fold change vs veh, ILF3 / RFU 11762660_at / Fold change /veh 11762660_at / RFU VCAN (11757783_s_at) / Fold change /veh VCAN (11757783_s_at) / RFU DDX43 (11728927_at) / Fold change /veh DDX43 (11728927_at) / RFU KRT8 (11758188_x_at) / Fold change /veh KRT8 (11758188_x_at) / RFU NKD1 (11759106_at) / Fold change /veh NKD1 (11759106_at) / RFU SRD5A1 (11742802_a_at) / Fold change /veh SRD5A1 (11742802_a_at) / RFU TPSAB1 /// TPSB2 (11721975_s_at) / Fold change /veh TPSAB1 /// TPSB2 (11721975_s_at) / RFU GSTM3 (11746129_a_at) / Fold change /veh GSTM3 (11746129_a_at) / RFU IL23R (11737362_x_at) / Fold change /veh IL23R (11737362_x_at) / RFU TMEM51 (11727254_a_at) / Fold change /veh TMEM51 (11727254_a_at) / RFU PIWIL2 (11732686_x_at) / Fold change /veh PIWIL2 (11732686_x_at) / RFU ORM1 (11744905_x_at) / Fold change /veh ORM1 (11744905_x_at) / RFU CCDC152 (11743942_at) / Fold change /veh CCDC152 (11743942_at) / RFU ECM1 (11717891_a_at) / Fold change /veh ECM1 (11717891_a_at) / RFU IL23R (11748794_a_at) / Fold change /veh IL23R (11748794_a_at) / RFU TNFAIP8L3 (11732012_x_at) / Fold change /veh TNFAIP8L3 (11732012_x_at) / RFU MBOAT4 (11741988_at) / Fold change /veh MBOAT4 (11741988_at) / RFU 11764193_at / Fold change /veh 11764193_at / RFU TMEM53 (11763286_at) / Fold change /veh TMEM53 (11763286_at) / RFU MAGEB2 (11727129_at) / Fold change /veh MAGEB2 (11727129_at) / RFU TMEM200A (11744735_a_at) / Fold change /veh TMEM200A (11744735_a_at) / RFU CCDC152 (11751479_a_at) / Fold change /veh CCDC152 (11751479_a_at) / RFU FAM211A (11726209_a_at) / Fold change /veh FAM211A (11726209_a_at) / RFU RGS16 (11746705_a_at) / Fold change /veh RGS16 (11746705_a_at) / RFU VCAN (11755009_s_at) / Fold change /veh VCAN (11755009_s_at) / RFU RHOB (11743442_s_at) / Fold change /veh RHOB (11743442_s_at) / RFU RGS16 (11720943_a_at) / Fold change /veh RGS16 (11720943_a_at) / RFU RGS16 (11720944_at) / Fold change /veh RGS16 (11720944_at) / RFU, VPS4B / Fold change vs veh, VPS4B / RFU, CREB1 / Fold change vs veh, CREB1 / RFU, DNAJC13 / Fold change vs veh, DNAJC13 / RFU, GNAQ / Fold change vs veh, GNAQ / RFU, CDK5R1 / Fold change vs veh, CDK5R1 / RFU, ZRANB3 / Fold change vs veh, ZRANB3 / RFU, CUL4A / Fold change vs veh, CUL4A / RFU, CCNY / Fold change vs veh, CCNY / RFU, UFL1 / Fold change vs veh, UFL1 / RFU, COG3 / Fold change vs veh, COG3 / RFU, DIAPH2 / Fold change vs veh, DIAPH2 / RFU, SKA2 / Fold change vs veh, SKA2 / RFU, AFF3 / Fold change vs veh, AFF3 / RFU, LMF1 / Fold change vs veh, LMF1 / RFU, IPO11 / Fold change vs veh, IPO11 / RFU, DFFB / Fold change vs veh, DFFB / RFU, FOXP1 / Fold change vs veh, FOXP1 / RFU, CARD8 / Fold change vs veh, CARD8 / RFU, STRN3 / Fold change vs veh, STRN3 / RFU, ADK / Fold change vs veh, ADK / RFU, RASSF2 / Fold change vs veh, RASSF2 / RFU, WIPF1 / Fold change vs veh, WIPF1 / RFU, LARP1B / Fold change vs veh, LARP1B / RFU, RASA1 / Fold change vs veh, RASA1 / RFU, RB1 / Fold change vs veh, RB1 / RFU, PPFIA1 / Fold change vs veh, PPFIA1 / RFU, MAT2A / Fold change vs veh, MAT2A / RFU, CCT5 / Fold change vs veh, CCT5 / RFU, WDR92 / Fold change vs veh, WDR92 / RFU, CUX1 / Fold change vs veh, CUX1 / RFU, TTC7A / Fold change vs veh, TTC7A / RFU, TMEM135 / Fold change vs veh, TMEM135 / RFU, DEPTOR / Fold change vs veh, DEPTOR / RFU, CPM / Fold change vs veh, CPM / RFU, DNAJB6 / Fold change vs veh, DNAJB6 / RFU, CACNA2D3 / Fold change vs veh, CACNA2D3 / RFU, DTX4 / Fold change vs veh, DTX4 / RFU, TFCP2 / Fold change vs veh, TFCP2 / RFU, GMCL1 /// GMCL1P1 / Fold change vs veh, GMCL1 /// GMCL1P1 / RFU, AEBP2 / Fold change vs veh, AEBP2 / RFU, SNHG1 /// SNORD22 /// SNORD25 /// SNORD26 /// SNORD27 /// SNORD28 /// SNORD29 /// SNORD31 / Fold change vs veh, SNHG1 /// SNORD22 /// SNORD25 /// SNORD26 /// SNORD27 /// SNORD28 /// SNORD29 /// SNORD31 / Fold change (Aza/veh), C12orf56 (ProbeSet 11735607_a_at) / Fold change (ACY-1035/veh), C12orf56 (ProbeSet 11735607_a_at) / Fold change (Aza/veh), FGFR1OP (ProbeSet 11751329_s_at) / Fold change (ACY-1035/veh), FGFR1OP (ProbeSet 11751329_s_at) / Fold change (Aza/veh), VPS36 (ProbeSet 11739960_a_at) / Fold change (ACY-1035/veh), VPS36 (ProbeSet 11739960_a_at) / RFU SYPL1 (11715823_x_at) / Fold change /veh SYPL1 (11715823_x_at) / RFU IGFBP7 (11715501_s_at) / Fold change /veh IGFBP7 (11715501_s_at) / RFU REEP3 (11722064_at) / Fold change /veh REEP3 (11722064_at) / RFU IGLL1 (11728026_x_at) / Fold change /veh IGLL1 (11728026_x_at): dose or concentration left out as unconfirmed. Particulars: ProbeSet 11764057_s_at; LIST B. It is filed as cell-based, human.

For the compound `Nc1ncn([C@@H]2O[C@H](CO)[C@@H](O)[C@H]2O)c(=O)n1` [azacitidine], the “Fold change vs veh, C1orf63” value was found to be 1.09.
